# Like-named read-outs stand apart in the source and are kept apart here. Non-standard residues stand in square brackets, D forms with d. Residues, ends and D or L forms follow the SMILES beside them. pY = N[C@@H](Cc1ccc(OP(=O)(O)O)cc1)C(=O)O
# Assays:
# Assay in all cases: biochemical
# Assay type in all cases: binding
# SH3BP2 = molecular target: T1, SH3BP2 (Homo sapiens, UniProt P78314); details: for remaining activity at 10 µM: read-out: percent of DMSO vehicle control
# T1 construct: made in house; host or cells: HEK293 (transient transfection), unpurified extract
# T1 sequence (P78314 1-561): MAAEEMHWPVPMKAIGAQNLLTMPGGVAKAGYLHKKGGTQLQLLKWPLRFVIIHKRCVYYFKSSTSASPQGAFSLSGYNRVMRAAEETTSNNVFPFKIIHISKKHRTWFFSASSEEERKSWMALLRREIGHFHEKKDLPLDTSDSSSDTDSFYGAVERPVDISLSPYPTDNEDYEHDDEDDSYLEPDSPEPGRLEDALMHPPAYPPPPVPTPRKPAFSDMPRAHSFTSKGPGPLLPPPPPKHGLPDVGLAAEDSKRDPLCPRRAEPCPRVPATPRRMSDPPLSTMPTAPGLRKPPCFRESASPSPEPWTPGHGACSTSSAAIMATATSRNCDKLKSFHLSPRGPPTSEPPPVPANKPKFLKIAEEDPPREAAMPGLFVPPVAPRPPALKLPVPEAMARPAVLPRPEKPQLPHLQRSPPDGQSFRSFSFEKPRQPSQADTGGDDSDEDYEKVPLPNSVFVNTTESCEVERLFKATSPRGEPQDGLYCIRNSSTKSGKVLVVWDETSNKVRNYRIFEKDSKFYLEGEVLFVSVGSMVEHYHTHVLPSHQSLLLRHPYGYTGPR
# FRK = molecular target: T2, FRK (Homo sapiens, UniProt P42685)
# T2 construct: the DNA-tagged SH2 domain concentrations used in this study were <0.1 nM; made in house; host or cells: HEK293 (transient transfection; unpurified extract)
# T2 sequence (P42685 116-208 limits assumed): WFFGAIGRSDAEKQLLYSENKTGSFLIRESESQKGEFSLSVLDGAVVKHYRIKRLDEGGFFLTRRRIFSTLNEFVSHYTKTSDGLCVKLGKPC
# PIK3R3(SH2dom.N-term.) = molecular target: T3, PIK3R3(SH2dom.N-term.) (Homo sapiens, UniProt Q92569); details: for remaining activity at 10 µM: read-out: percent of DMSO vehicle control
# T3 construct: SH2dom.N-term. denotes SH2 domain closest to N-terminus of protein; made in house; host or cells: HEK293 (transient transfection, unpurified extract)
# RASA1(SH2dom.N-term.) = molecular target: T4, RASA1(SH2dom.N-term.) (Homo sapiens, UniProt P20936); details: for remaining activity at 10 µM: read-out: percent of DMSO vehicle control
# T4 construct: SH2dom.N-term. denotes SH2 domain closest to N-terminus of protein; made in house; host or cells: HEK293 (transient transfection), unpurified extract
# T4 sequence (P20936 181-272 limits assumed): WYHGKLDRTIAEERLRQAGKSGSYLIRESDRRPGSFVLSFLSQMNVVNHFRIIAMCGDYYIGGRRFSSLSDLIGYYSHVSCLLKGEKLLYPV
# FYN = molecular target: T5, FYN (Homo sapiens, UniProt P06241)
# T5 construct: the DNA-tagged SH2 domain concentrations used in this study were <0.1 nM; made in house; host or cells: HEK293 (transient transfection; unpurified extract)
# T5 sequence (P06241 149-246 limits assumed): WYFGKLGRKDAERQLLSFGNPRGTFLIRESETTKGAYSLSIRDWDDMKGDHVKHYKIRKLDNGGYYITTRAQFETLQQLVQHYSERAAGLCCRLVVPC
# STAP2 = molecular target: T6, STAP2 (Homo sapiens, UniProt Q9UGK3)
# T6 construct: made in house; host or cells: HEK293 (transient transfection), unpurified extract
# T6 sequence (Q9UGK3 1-403): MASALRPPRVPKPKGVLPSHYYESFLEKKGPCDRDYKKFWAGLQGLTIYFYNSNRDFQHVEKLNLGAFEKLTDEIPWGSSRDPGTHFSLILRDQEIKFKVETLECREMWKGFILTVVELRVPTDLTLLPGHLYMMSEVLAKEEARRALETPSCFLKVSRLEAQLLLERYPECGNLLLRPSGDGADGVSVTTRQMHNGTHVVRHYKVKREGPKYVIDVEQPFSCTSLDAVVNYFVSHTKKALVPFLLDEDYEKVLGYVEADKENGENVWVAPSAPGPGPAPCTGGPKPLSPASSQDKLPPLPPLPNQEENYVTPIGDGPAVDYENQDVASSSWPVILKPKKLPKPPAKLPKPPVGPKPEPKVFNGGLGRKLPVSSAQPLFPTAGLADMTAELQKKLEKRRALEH
# FER = molecular target: T7, FER (Homo sapiens, UniProt P16591)
# T7 construct: the DNA-tagged SH2 domain concentrations used in this study were <0.1 nM; made in house; host or cells: HEK293 (transient transfection; unpurified extract)
# T7 sequence (P16591 460-550 limits assumed): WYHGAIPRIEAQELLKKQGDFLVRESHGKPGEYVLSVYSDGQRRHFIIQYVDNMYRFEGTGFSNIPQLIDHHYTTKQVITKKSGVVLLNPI
# PTPN6(SH2dom.N-term.) = molecular target: T8, PTPN6(SH2dom.N-term.) (Homo sapiens, UniProt P29350); details: for remaining activity at 10 µM: read-out: percent of DMSO vehicle control
# T8 construct: SH2dom.N-term. denotes SH2 domain closest to N-terminus of protein; made in house; host or cells: HEK293 (transient transfection, unpurified extract)
# T8 sequence (P29350 4-100 limits assumed): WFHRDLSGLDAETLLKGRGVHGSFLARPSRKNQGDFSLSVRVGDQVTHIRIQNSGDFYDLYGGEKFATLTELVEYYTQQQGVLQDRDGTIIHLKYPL
# ITK = molecular target: T9, ITK (Homo sapiens, UniProt Q08881); details: primary screen, 10 μM
# T9 construct: the DNA-tagged SH2 domain concentrations used in this study were <0.1 nM; made in house; host or cells: HEK293 (transient transfection, unpurified extract)
# T9 sequence (Q08881 239-338 limits assumed): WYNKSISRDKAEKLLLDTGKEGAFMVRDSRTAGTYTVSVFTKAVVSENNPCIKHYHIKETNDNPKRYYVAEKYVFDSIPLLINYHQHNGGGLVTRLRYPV
# SHC2 = molecular target: T10, SHC2 (Homo sapiens, UniProt P98077); details: for remaining activity at 10 µM: read-out: percent of DMSO vehicle control
# T10 construct: made in house; host or cells: HEK293 (transient transfection), unpurified extract
# T10 sequence (P98077 1-582): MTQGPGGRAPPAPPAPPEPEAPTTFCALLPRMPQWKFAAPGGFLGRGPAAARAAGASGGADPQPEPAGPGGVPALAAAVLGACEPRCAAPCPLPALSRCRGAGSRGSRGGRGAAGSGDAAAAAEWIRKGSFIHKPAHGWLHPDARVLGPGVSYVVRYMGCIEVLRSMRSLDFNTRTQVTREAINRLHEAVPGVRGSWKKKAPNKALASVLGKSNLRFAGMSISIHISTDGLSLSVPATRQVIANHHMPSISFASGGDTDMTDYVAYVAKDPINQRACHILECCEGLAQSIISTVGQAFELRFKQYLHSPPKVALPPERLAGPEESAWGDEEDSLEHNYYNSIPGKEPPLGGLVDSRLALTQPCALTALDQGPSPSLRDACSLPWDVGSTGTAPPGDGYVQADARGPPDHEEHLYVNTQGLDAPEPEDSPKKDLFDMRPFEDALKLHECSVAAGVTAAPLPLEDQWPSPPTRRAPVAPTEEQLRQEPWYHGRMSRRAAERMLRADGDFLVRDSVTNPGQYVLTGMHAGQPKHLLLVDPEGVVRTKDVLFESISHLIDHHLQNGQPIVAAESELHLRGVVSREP
# DAPP1 = molecular target: T11, DAPP1 (Homo sapiens, UniProt Q9UN19)
# T11 construct: the DNA-tagged SH2 domain concentrations used in this study were <0.1 nM; made in house; host or cells: HEK293 (transient transfection; unpurified extract)
# T11 sequence (Q9UN19 35-129 limits assumed): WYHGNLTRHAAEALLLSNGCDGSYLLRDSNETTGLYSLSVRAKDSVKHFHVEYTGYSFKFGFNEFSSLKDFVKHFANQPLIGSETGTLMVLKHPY
# PIK3R2(SH2dom.C-term.) = molecular target: T12, PIK3R2(SH2dom.C-term.) (Homo sapiens, UniProt O00459); details: for remaining activity at 10 µM: read-out: percent of DMSO vehicle control
# T12 construct: SH2dom.C-term. denotes SH2 domain closest to C-terminus of protein; made in house; host or cells: HEK293 (transient transfection, unpurified extract)
# T12 sequence (O00459 622-716 limits assumed): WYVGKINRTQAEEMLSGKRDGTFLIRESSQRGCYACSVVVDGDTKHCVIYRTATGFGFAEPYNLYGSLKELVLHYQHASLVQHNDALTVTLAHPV
# [1] = read-out: percent of DMSO vehicle control
# [2] = primary screen, 10 μM, read-out: percent of DMSO vehicle control
compound,measurement,setting,value
CC[C@H](C)[C@H](NC(=O)[C@H](CO)NC(=O)[C@H](CC(C)C)NC(=O)[C@H](CCCNC(=N)N)NC(=O)[C@H](CO)NC(=O)[C@H](CS)NC(C)=O)C(=O)N[C@@H](Cc1ccc(OP(=O)(O)O)cc1)C(=O)N[C@@H](CC(=O)O)C(=O)N[C@@H](CC(N)=O)C(=O)N[C@H](C(=O)N1CCC[C@H]1C(=O)NCC(N)=O)C(C)C [Ac-CSRLSIpYDNVPG-NH2] (Ac-CSRLSI[pY]DNVPG-NH2),Kd,SH3BP2,209 ± 10.1 nM
CC[C@H](C)[C@H](NC(=O)[C@H](CCC(=O)O)NC(=O)[C@H](CCC(=O)O)NC(=O)[C@H](Cc1ccc(OP(=O)(O)O)cc1)NC(C)=O)C(=O)N[C@@H](CCC(=O)O)C(N)=O [Ac-pYEEIE-NH2] (Ac-[pY]EEIE-NH2),percent of DMSO vehicle control,"FRK; primary screen, 10 μM",82.5%
same,percent of DMSO vehicle control,"PIK3R3(SH2dom.N-term.); primary screen, 10 μM",85.7%
same,percent of DMSO vehicle control,"RASA1(SH2dom.N-term.); primary screen, 10 μM",121.2%
same,percent of DMSO vehicle control,"SH3BP2; primary screen, 10 μM",90.0±2.1%
same,Kd,FYN,3300 nM
same,percent of DMSO vehicle control,"FYN; primary screen, 10 μM",21.2±2.5%
same,percent of DMSO vehicle control,"STAP2; primary screen, 10 μM",80.1±5.7%
same,percent of DMSO vehicle control,"FER; primary screen, 10 μM",37.4%
same,percent of DMSO vehicle control,"PTPN6(SH2dom.N-term.); primary screen, 10 μM",163.9%
same,percent of DMSO vehicle control,ITK,122.5%
same,percent of DMSO vehicle control,"SHC2; primary screen, 10 μM",138.0%
same,percent of DMSO vehicle control,"DAPP1; primary screen, 10 μM",134.5%
same,percent of DMSO vehicle control,"PIK3R2(SH2dom.C-term.); primary screen, 10 μM",49.5±7.1%
NC(=O)CC[C@H](NC(=O)[C@@H]1CC[C@@H]2CCN(C(=O)CCCCCC#Cc3cccc4c3CN(C3CCC(=O)NC3=O)C4=O)C[C@H](NC(=O)c3cc4cc(C(F)(F)P(=O)(O)O)ccc4[nH]3)C(=O)N21)C(=O)NC(c1ccccc1)c1ccccc1 (some centres unmarked) [SD-36],percent of DMSO vehicle control at 10 µM,FRK; [1],155 ± 4.5%
same,remaining activity at 10 µM,PIK3R3(SH2dom.N-term.),111 ± 7.3%
same,remaining activity at 10 µM,RASA1(SH2dom.N-term.),64.7 ± 0.3%
same,remaining activity at 10 µM,SH3BP2,91.5 ± 19.4%
same,percent of DMSO vehicle control at 10 µM,FYN; [1],106%
same,percent of DMSO vehicle control at 10 µM,STAP2; [1],36.1 ± 5.4%
same,percent of DMSO vehicle control at 10 µM,FER; [1],74.4 ± 18.6%
same,remaining activity at 10 µM,PTPN6(SH2dom.N-term.),87.3 ± 4.7%
same,percent of DMSO vehicle control,ITK,94.0±11.1%
same,remaining activity at 10 µM,SHC2,94.9 ± 2.3%
same,percent of DMSO vehicle control at 10 µM,DAPP1; [1],126%
same,KD,PIK3R2(SH2dom.C-term.); dose-response,No Hit
same,remaining activity at 10 µM,PIK3R2(SH2dom.C-term.),18.5 ± 3.9%
CC(C)(C)[C@H](NC(=O)/C=C/c1ccc(OP(=O)(O)O)cc1)C(=O)N1CCC[C@H]1C(=O)N(c1ccccc1)c1ccc(I)cc1 [STAT6-IN-3],remaining activity at 10 µM,FRK; [2],59.9 ± 42.5%
same,remaining activity at 10 µM,"PIK3R3(SH2dom.N-term.); primary screen, 10 μM",85.8 ± 16.7%
same,remaining activity at 10 µM,"RASA1(SH2dom.N-term.); primary screen, 10 μM",81.7 ± 8.5%
same,remaining activity at 10 µM,"SH3BP2; primary screen, 10 μM",92.8 ± 2.7%
same,remaining activity at 10 µM,FYN; [2],51.8 ± 33.2%
same,remaining activity at 10 µM,STAP2; [2],56.9 ± 15.1%
same,Kd,"FER; dose-response, read-out: KD",8000 ± 8700 nM
same,remaining activity at 10 µM,FER; [2],10.7 ± 34%
same,remaining activity at 10 µM,"PTPN6(SH2dom.N-term.); primary screen, 10 μM",77.4 ± 15.8%
same,percent of DMSO vehicle control,ITK,0±54.7%
same,remaining activity at 10 µM,"SHC2; primary screen, 10 μM",85.2 ± 11.3%
same,remaining activity at 10 µM,DAPP1; [2],58.9 ± 43.2%
same,Kd,"PIK3R2(SH2dom.C-term.); dose-response, read-out: KD",490 ± 80 nM
same,remaining activity at 10 µM,"PIK3R2(SH2dom.C-term.); primary screen, 10 μM",6.1 ± 1.6%

# From paper PMC12951562, “SH2scan: Mapping SH2 Domain-Ligand Binding Selectivity for Inhibitors and Degraders” (Journal of Medicinal Chemistry, 2026)
